In ChEMBL document CHEMBL5370634, “Synthesis and Antifungal Evaluation of New Azole Derivatives against Candida albicans” (ACS Med Chem Lett, 2023):
Converted amounts (≈) assume the structure as drawn. The source made the active and inactive calls. The rule behind the calls is not given here.

Tests used:
Candida albicans [1] = assay: Antifungal activity against Candida albicans SC5314FR assessed as fractional inhibitory concentration index incubated for 24 hrs in presence of fluconazole by microdilution method; type: functional
Candida albicans [2] = assay: Antifungal activity against Candida albicans SC5314 assessed as fractional inhibitory concentration index incubated for 24 hrs in presence of fluconazole by microdilution method; type: functional
Candida albicans [3] = assay: Antifungal activity against Candida albicans SC5314 incubated for 24 hrs by microdilution method; type: functional
Candida albicans [4] = assay: Antifungal activity against Candida albicans SC5314 incubated for 24 hrs in presence of fluconazole by microdilution method; type: functional
Candida albicans [5] = assay: Antifungal activity against Candida albicans SC5314FR incubated for 24 hrs by microdilution method; type: functional
Candida albicans [6] = assay: Antifungal activity against Candida albicans SC5314FR incubated for 24 hrs in presence of fluconazole by microdilution method; type: functional, SC5314
Candida albicans [7] = assay: Antibiofilm activity against Candida albicans SC5314 assessed as inhibition of biofilm formation at 0.15 to 0.6 ug/mL incubated for 24 hrs by crystal violet staining based inverted microscopy analysis; type: functional, organism-based; details: dose 0.15-0.6 µg/ml
Candida albicans [8] = assay: Induction of cell membrane permeability in Candida albicans SC5314 at 0.15 to 0.6 ug/mL incubated for 16 hrs by […] iodide staining based fluorescence microscopy; type: functional, organism-based; details: dose 0.15-0.6 µg/ml
[9] = molecular target: Lanosterol 14-alpha demethylase (Candida albicans (strain SC5314 / ATCC MYA-2876) (Yeast), UniProt P10613); assay: Inhibition of CYP51 in Candida albicans SC5314 assessed as reduction in ergosterol content at 0.15 to 0.6 ug/mL incubated for 16 hrs by spectrophotometry analysis; details: at 0.15 to 0.6 µg/mL, dose 0.15-0.6 µg/ml
Candida albicans [10] = assay: Induction of morphological changes in Candida albicans SC5314 assessed as appearance of incomplete cell wall structure incubated for 16 hrs by TEM analysis; type: functional, organism-based; details: dose 0.15-0.6 µg/ml
Candida albicans [11] = assay: Induction of morphological changes in Candida albicans SC5314 assessed as appearance of obvious defects incubated for 16 hrs by TEM analysis; type: functional, organism-based; details: dose 0.15-0.6 µg/ml
Candida albicans [12] = assay: Induction of morphological changes in Candida albicans SC5314 assessed as appearance of blurred boundary between cell wall and cell membrane incubated for 16 hrs by TEM analysis; type: functional, organism-based; details: dose 0.15-0.6 µg/ml
Candida albicans [13] = assay: Induction of morphological changes in Candida albicans SC5314 assessed as appearance of unclear cell membrane outline incubated for 16 hrs by TEM analysis; type: functional, organism-based; details: dose 0.15-0.6 µg/ml
Candida albicans [14] = assay: Induction of morphological changes in Candida albicans SC5314 assessed as chaotic dissolution of cytoplasm incubated for 16 hrs by TEM analysis; type: functional, organism-based; details: dose 0.15-0.6 µg/ml
Candida albicans [15] = assay: Induction of morphological changes in Candida albicans SC5314 assessed as chaotic dissolution of vacuoles incubated for 16 hrs by TEM analysis; type: functional, organism-based; details: dose 0.15-0.6 µg/ml
Candida albicans [16] = assay: Induction of morphological changes in Candida albicans SC5314 assessed as appearance of broken slag-like material incubated for 16 hrs by TEM analysis; type: functional, organism-based; details: dose 0.15-0.6 µg/ml
Candida albicans [17] = assay: Induction of morphological changes in Candida albicans SC5314 assessed as leaking of intracellular substances incubated for 16 hrs by TEM analysis; type: functional, organism-based; details: dose 0.15-0.6 µg/ml
Candida albicans [18] = assay: Antibiofilm activity against Candida albicans SC5314 assessed as inhibition of biofilm formation at 0.3 ug/mL incubated for 24 hrs in presence of fluconazole by crystal violet staining based inverted microscopy analysis; type: functional, organism-based; details: dose 0.3 µg/ml
Candida albicans [19] = assay: Induction of morphological changes in Candida albicans SC5314 assessed as appearance of loose texture incubated for 16 hrs by TEM analysis; type: functional, organism-based; details: dose 0.15-0.6 µg/ml

Lanosterol 14-alpha demethylase, sequence (P10613 whole entry): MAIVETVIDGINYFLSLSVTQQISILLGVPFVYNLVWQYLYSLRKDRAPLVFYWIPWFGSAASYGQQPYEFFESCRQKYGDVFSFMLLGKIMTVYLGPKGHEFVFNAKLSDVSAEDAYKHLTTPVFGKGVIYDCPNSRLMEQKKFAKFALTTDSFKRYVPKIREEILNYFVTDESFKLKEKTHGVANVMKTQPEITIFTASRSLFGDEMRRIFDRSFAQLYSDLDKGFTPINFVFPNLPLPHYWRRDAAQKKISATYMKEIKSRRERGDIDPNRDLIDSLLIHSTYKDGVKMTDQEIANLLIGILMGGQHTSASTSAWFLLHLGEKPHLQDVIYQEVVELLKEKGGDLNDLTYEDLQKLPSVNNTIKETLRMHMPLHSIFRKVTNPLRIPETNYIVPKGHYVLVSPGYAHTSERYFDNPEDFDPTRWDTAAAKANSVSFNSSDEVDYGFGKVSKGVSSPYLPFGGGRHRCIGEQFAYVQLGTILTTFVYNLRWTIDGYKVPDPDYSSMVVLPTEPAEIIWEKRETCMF

SMILES | MIC50 (Candida albicans [3]) [µg/mL] | MIC50 (Candida albicans [4]) [µg/mL] | MIC50 (Candida albicans [5]) [µg/mL] | MIC50 (Candida albicans [6]) [µg/mL] | inhibition (INH) [9] | fractional inhibitory concentration index (FICI) (Candida albicans [1]) | fractional inhibitory concentration index (FICI) (Candida albicans [2]) | inhibition (Candida albicans [7]) | Activity (Candida albicans [8]) | Activity (Candida albicans [10]) | Activity (Candida albicans [11]) | Activity (Candida albicans [12]) | Activity (Candida albicans [13]) | Activity (Candida albicans [14]) | Activity (Candida albicans [15]) | Activity (Candida albicans [16]) | Activity (Candida albicans [17]) | inhibition (Candida albicans [18]) | Activity (Candida albicans [19])
CC(=O)N1CCN(c2ccc(OCCN(Cc3ccc(F)c(F)c3)CC(O)(Cn3cncn3)c3ccc(F)cc3F)cc2)CC1 (stereo not given) | 4.31 (≈ 6.88 µM) | 5.85 | > 200 | > 200 | – | 2 | 4.61 | – | – | – | – | – | – | – | – | – | – | – | –
CC(=O)N1CCN(c2ccc(OCCN(CC(O)(Cn3cncn3)c3ccc(F)cc3F)C(=O)c3c(Cl)cccc3Cl)cc2)CC1 (stereo not given) | 6.25 (≈ 9.28 µM) | 0.56 | > 200 | > 200 | – | 2 | 0.4 | – | – | – | – | – | – | – | – | – | – | – | –
CC(=O)N1CCN(c2ccc(OCCN(CC(O)(Cn3cncn3)c3ccc(F)cc3F)C(=O)c3ccc(Cl)cc3)cc2)CC1 (stereo not given) | 6.79 (≈ 10.6 µM) | 0.91 | > 200 | 147 | – | 0.73 | 0.64 | – | – | – | – | – | – | – | – | – | – | – | –
CC(=O)N1CCN(c2ccc(OCCN(CC(O)(Cn3cncn3)c3ccc(F)cc3F)C(=O)CCCl)cc2)CC1 (stereo not given) | 19.4 (≈ 32.9 µM) | 1.83 | > 200 | 190 | – | 0.95 | 1.11 | – | – | – | – | – | – | – | – | – | – | – | –
CC(=O)N1CCN(c2ccc(OCCN(CC(O)(Cn3cncn3)c3ccc(F)cc3F)C(=O)c3ccccc3Cl)cc2)CC1 (stereo not given) | 11.3 (≈ 17.8 µM) | 2.5 | > 200 | > 200 | – | 2 | 1.61 | – | – | – | – | – | – | – | – | – | – | – | –
COc1ccc(C(=O)CN(CCOc2ccc(N3CCN(C(C)=O)CC3)cc2)CC(O)(Cn2cncn2)c2ccc(F)cc2F)cc1OC (stereo not given) | 35 (≈ 51.5 µM) | 1.22 | > 200 | > 200 | – | 2 | 0.71 | – | – | – | – | – | – | – | – | – | – | – | –
C=CCN(CCOc1ccc(N2CCN(C(C)=O)CC2)cc1)CC(O)(Cn1cncn1)c1ccc(F)cc1F (stereo not given) | 7.13 (≈ 13.2 µM) | 2.17 | 115 (≈ 213 µM) | 95.7 | – | 1.07 | 1.51 | – | – | – | – | – | – | – | – | – | – | – | –
CC(=O)N1CCN(c2ccc(OCCN(CC(O)(Cn3cncn3)c3ccc(F)cc3F)C(=O)c3ccc(C(F)(F)F)cc3)cc2)CC1 (stereo not given) | 17.9 (≈ 26.6 µM) | 3.32 | > 200 | > 200 | – | 2 | 2.03 | – | – | – | – | – | – | – | – | – | – | – | –

Compounds with a lower MIC50 (Candida albicans [3]), results first:

MIC50 (Candida albicans [3]) [µg/mL] | MIC50 (Candida albicans [4]) [µg/mL] | MIC50 (Candida albicans [5]) [µg/mL] | MIC50 (Candida albicans [6]) [µg/mL] | inhibition (INH) [9] | SMILES | fractional inhibitory concentration index (FICI) (Candida albicans [1]) | fractional inhibitory concentration index (FICI) (Candida albicans [2]) | inhibition (Candida albicans [7]) | Activity (Candida albicans [8]) | Activity (Candida albicans [10]) | Activity (Candida albicans [11]) | Activity (Candida albicans [12]) | Activity (Candida albicans [13]) | Activity (Candida albicans [14]) | Activity (Candida albicans [15]) | Activity (Candida albicans [16]) | Activity (Candida albicans [17]) | inhibition (Candida albicans [18]) | Activity (Candida albicans [19])
0.08 (≈ 0.126 µM) | 0.002 | > 200 | > 200 | – | CC(=O)N1CCN(c2ccc(OCCN(Cc3ccc([N+](=O)[O-])cc3)CC(O)(Cn3cncn3)c3ccc(F)cc3F)cc2)CC1 (stereo not given) | 2 | 0.03 | – | – | – | – | – | – | – | – | – | – | – | –
0.31 (≈ 0.458 µM) | 0.14 | > 200 | > 200 | – | CC(=O)N1CCN(c2ccc(OCCN(CC(O)(Cn3cncn3)c3ccc(F)cc3F)C(=O)c3cc(F)c(F)c(F)c3F)cc2)CC1 (stereo not given) | 2 | 0.53 | – | – | – | – | – | – | – | – | – | – | – | –
0.02 (≈ 0.0282 µM) | 0.09 | > 200 | > 200 | Active | CC(=O)N1CCN(c2ccc(OCCN(CC(O)(Cn3cncn3)c3ccc(F)cc3F)S(=O)(=O)c3ccc(Cl)cc3Cl)cc2)CC1 (stereo not given) | 2 | 4.55 | Active | Active | Dose-Dependent Effect | Dose-Dependent Effect | Dose-Dependent Effect | Dose-Dependent Effect | Dose-Dependent Effect | Dose-Dependent Effect | Dose-Dependent Effect | Dose-Dependent Effect | Active | Dose-Dependent Effect
0.84 (≈ 1.16 µM) | 0.26 | > 200 | > 200 | – | CC(=O)N1CCN(c2ccc(OCCN(CC(O)(Cn3cncn3)c3ccc(F)cc3F)S(=O)(=O)c3ccc(OC(F)(F)F)cc3)cc2)CC1 (stereo not given) | 2 | 0.45 | – | – | – | – | – | – | – | – | – | – | – | –
